Read-outs that look alike come from different tables or passages of the source.
What was measured:
[1] = system: NF-κB reporter p(IL6-κB)350hu.IL6P-luc+, GR dependence; format: cell-based, human; conditions: mock DNA versus pSVhGRα, 2000 IU/ml TNF
[2] = system: Gal4-p65 chimeric protein; assay: Gal4-p65 transactivation of p(Gal)2-50hu.IL6P-luc+ in L929sA cells; format: cell-based, mouse
[3] = system: GRE-driven promoter (p(GRE)2-50-luc+); format: cell-based, mouse
[4] = system: NF-κB DNA-binding activity (IL-6 NF-κB response element); assay: EMSA of NF-κB DNA-binding activity in L929sA cells; format: cell-based, mouse; conditions: all concentrations indicated, added 2 h before TNF (2000 IU/ml), total 4 h
[5] = system: NF-κB (p1168(AP-1mut)IL6P-luc+); format: cell-based, mouse; conditions: 2000 IU/ml TNF
[6] = system: endogenous murine IL-6 production; assay: Murine IL-6 ELISA on supernatant of TNF-induced L929sA cells; format: cell-based, mouse; conditions: 1 μM and 10 μM, 2000 IU/ml TNF, 8 h
[7] = system: E-selectin promoter (pE-selectin-Luc); format: cell-based, mouse; conditions: 2000 IU/ml TNF
[8] = kept in solution (especially at pH5 and above); cited from earlier work
[9] = system: JNK p46 and p54; assay: MAPK activation assay (phospho-specific Western blot), JNK, L929sA cells; format: cell-based, mouse; conditions: 2000 IU/ml TNF 15 minutes
[10] = system: NF-κB (p(IL6κB)350hu.IL6P-luc+); format: cell-based, mouse; conditions: 0.1, 1 or 10 μM CpdA compared with 1 μM DEX, 2000 IU/ml TNF
[11] = system: oestrus cycle; conditions: rats; cited from earlier work
[12] = system: IL-6 promoter (p1168hu.IL6P-luc+); format: cell-based, mouse; conditions: added 2 h before 2000 IU/ml TNF, total 8 h
[13] = system: AP-1 (p1168(κBmut)IL6P-luc+); format: cell-based, mouse; conditions: 60 nM STS
[14] = system: pNF-κB-Luc; assay: TNF-activated pNF-κB-Luc (E1B TATA) in HEK293T cells; format: cell-based, human; conditions: 2000 IU/ml TNF
[15] = Stability of the compound on storage and in solution; format: physicochemical; conditions: solid, storage
Excerpt: The invention further relates to compositions, preferably pharmaceutical compositions, comprising as an active ingredient at least one of the compounds as defined in formula (I) together with (pharmaceutically) acceptable excipients. […] The preferred compound exerting this activity is 2(4-acetoxyphenyl)-2-chloro-N-methyl-ethylammonium chloride and has a molecular weight of 264.14.

[16] = system: NF-κB DNA-binding activity (IL-6 NF-κB response element); conditions: L929sA cells, previously demonstrated; cited from earlier work

CNCC(Cl)c1ccc(OC(C)=O)cc1.Cl (stereo not shown) [CpdA, 2-(4-acetoxyphenyl)-2-chloro-N-methyl-ethylammonium chloride]
repression of TNF-activated p(IL6-κB)350hu.IL6P-luc+ ([1]; 10 μM): only when GR is present | inhibition of the activity of Gal4p65 ([2]; 10 μM): able to halfmaximally inhibit the activity of Gal4p65 | transactivation of p(GRE)2-50-luc+ ([3]; 0.1 and 10 μM, 8 h): lack of activity | effect on DEX-induced p(GRE)2-50-luc+ transactivation ([3]; CpdA together with 1 μM DEX): competition for GR molecules present in the cell | effect on NF-κB DNA-binding activity [4]: no change of NF-κB DNA-binding activity is observed | inhibition of TNF-induced NF-κB-mediated transactivation of p1168(AP-1mut)IL6P-luc+ ([5]; 1 μM and 10 μM): capable of significantly inhibiting the TNF-induced promoter activity | lowering of TNF-induced IL-6 protein levels [6]: able to efficiently lower these TNF-induced levels | inhibition of TNF-induced pE-selectin-luc+ ([7]; 1 μM): also effective, though to a lesser extent | inhibition of TNF-induced pE-selectin-luc+ ([7]; 10 μM): inhibits the TNF-activated reporter to the same extent as 1 μM DEX, i.e. to background levels | stability in solution [8]: starts to cyclise to the corresponding aziridine | effect on amount of phosphorylated (activated) JNK ([9]; 1 or 10 μM for 2 h): does not affect the amount of activated JNK p46 and p54 | inhibition of TNF-activated p(IL6κB)350hu.IL6Pluc+ [10]: inhibits, to a similar extent as DEX | effect on oestrus cycle [11]: disrupts the oestrus cycle of rats | inhibition of TNF induction of p1168hu.IL6P-luc+ (relative luciferase induction factor) ([12]; 0.1 μM): downmodulatory effect | inhibition of TNF induction of p1168hu.IL6P-luc+ (relative luciferase induction factor) ([12]; 1 μM): lowers the relative luciferase induction factor to almost the same extent as 1 μM DEX | inhibition of STS-induced AP-1-mediated transactivation ([13]; 0.1, 1 and 10 μM): capable of inhibiting the STS-induced transactivation | repression of TNF-activated pNF-κB-Luc ([14]; 10 μM): not able to mediate repression of pNF-κB-Luc | hygroscopicity and light sensitivity [15]: hygroscopic and sensitive to light

C[C@@H]1C[C@H]2[C@@H]3CCC4=CC(=O)C=C[C@]4(C)[C@@]3(F)[C@@H](O)C[C@]2(C)[C@@]1(O)C(=O)CO [DEX, Dexamethasone, reference compound]
repression of TNF-activated p(IL6-κB)350hu.IL6P-luc+ ([1]; 1 μM): only when GR is present | inhibition of the activity of Gal4p65 ([2]; 1 μM): able to halfmaximally inhibit the activity of Gal4p65 | transactivation of p(GRE)2-50-luc+ (induction factor) ([3]; 1 μM, 8 h): at least 8 fold | effect on NF-κB DNA-binding capacities [16]: without affecting the DNA-binding capacities of NF-κB | inhibition of TNF-induced NF-κB-mediated transactivation of p1168(AP-1mut)IL6P-luc+ ([5]; 1 μM): efficiently inhibit this NF-κB-mediated transactivation | inhibition of TNF-induced pE-selectin-luc+ ([7]; 1 μM): to background levels | effect on amount of phosphorylated (activated) JNK ([9]; 1 μM for 2 h): able to inhibit the amount of phosphorylated JNK | inhibition of TNF induction of p1168hu.IL6P-luc+ (relative luciferase induction factor) ([12]; 1 μM): efficiently be inhibited | inhibition of STS-induced AP-1-mediated transactivation ([13]; 1 μM): efficiently inhibits the AP-1-mediated transactivation | repression of TNF-activated pNF-κB-Luc ([14]; 1 μM): not able to mediate repression of pNF-κB-Luc

Source: patent US7053120B2, “Use of carboxy compounds such as 2(4-acetoxyphenyl)2-chloro-N-methyl-ethylammonium chloride as anti-inflammatory agents” (priority 1999, dated 2006)
